Laboratory results: patent US8999983B2, “Modulators of Hec1 activity and methods therefor” (Taivex Therapeutics Corporation, priority 2011, dated 2015)

How the values were obtained:
[1] = test system: Hela; assay: Antiproliferation assay (MTS), HeLa cells; type: cell-based; details: Homo sapiens, 96 h, Table 1, read-out: Antiproliferative IC50 Hela
Summary of the method: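 Cells seeded after overnight attachment were treated in triplicate for 96 h at 37 °C, 5% CO2, final DMSO below 1%. Viability read by MTS absorbance; concentration-response curves fitted by linear regression against DMSO controls.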

[2] = molecular target: T1, hERG potassium channels (Homo sapiens, UniProt Q12809); assay: [3H]Astemizole competitive binding assay, hERG; details: [3H]-astemizole displacement, hERG membrane protein
T1 construct: purchased PerkinElmer
Procedure: Here, [3H] Astemizole competitive binding assays were performed to determine the ability of compounds to displace the known radioligand [3H]-astemizole from the hERG potassium channels, following standard protocol with minor modifications. In brief, assays were performed in 200 μl of binding buffer (50 mM HEPES, pH 7.4, 60 mM KCl, and 0.1% BSA) containing 1.5 nM of [3H]astemizole, 3 μg/well of hERG membrane protein (PerkinElmer), and TAI-1 (in 1% DMSO final concentration) at 27° C. for 60 min. Nonspecific binding (NSB) was determined in the presence of 10 μM astemizole. […] Binding was terminated by rapid filtration onto polyethyleneimine-presoaked, buffer-washed UniFilter-96, GF/C (Perkin Elmer) using a vacuum manifold (Porvair Sciences). Captured radiolabel signal was detected using TopCount NXT (Perkin Elmer). […] All results are derived from two independent experiments.

T1 sequence (Q12809 whole entry): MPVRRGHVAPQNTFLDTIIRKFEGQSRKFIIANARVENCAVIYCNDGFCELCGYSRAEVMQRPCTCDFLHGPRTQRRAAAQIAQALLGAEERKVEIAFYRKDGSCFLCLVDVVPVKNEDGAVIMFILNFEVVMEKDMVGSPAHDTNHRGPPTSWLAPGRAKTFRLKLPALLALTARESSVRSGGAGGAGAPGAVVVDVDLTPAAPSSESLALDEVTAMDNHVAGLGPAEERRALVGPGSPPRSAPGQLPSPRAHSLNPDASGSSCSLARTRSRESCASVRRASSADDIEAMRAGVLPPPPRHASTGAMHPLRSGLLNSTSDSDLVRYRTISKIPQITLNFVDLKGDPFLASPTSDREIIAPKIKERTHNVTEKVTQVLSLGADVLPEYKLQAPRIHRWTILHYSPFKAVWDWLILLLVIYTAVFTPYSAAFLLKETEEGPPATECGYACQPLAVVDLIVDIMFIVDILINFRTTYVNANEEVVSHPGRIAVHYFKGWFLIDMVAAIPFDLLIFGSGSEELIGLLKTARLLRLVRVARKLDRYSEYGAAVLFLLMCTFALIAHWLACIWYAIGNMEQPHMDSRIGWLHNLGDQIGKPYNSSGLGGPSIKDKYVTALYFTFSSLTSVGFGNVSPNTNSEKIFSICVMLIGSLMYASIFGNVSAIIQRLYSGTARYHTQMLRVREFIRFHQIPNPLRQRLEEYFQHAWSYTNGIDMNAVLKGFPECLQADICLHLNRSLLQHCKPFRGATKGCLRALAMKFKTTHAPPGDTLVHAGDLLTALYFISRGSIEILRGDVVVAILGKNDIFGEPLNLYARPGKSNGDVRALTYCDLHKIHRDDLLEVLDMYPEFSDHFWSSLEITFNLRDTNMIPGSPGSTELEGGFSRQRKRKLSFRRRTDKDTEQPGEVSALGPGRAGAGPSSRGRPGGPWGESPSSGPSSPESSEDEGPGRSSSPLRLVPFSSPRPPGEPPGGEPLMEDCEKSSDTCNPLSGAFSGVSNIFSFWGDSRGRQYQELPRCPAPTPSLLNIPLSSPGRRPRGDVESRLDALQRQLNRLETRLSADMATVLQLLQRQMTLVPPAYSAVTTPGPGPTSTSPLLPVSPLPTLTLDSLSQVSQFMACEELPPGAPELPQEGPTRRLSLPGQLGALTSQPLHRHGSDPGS

IC50 [1]: 0.0211 µM
Compound: COCCOc1cnc(Sc2cc(C)c(-c3csc(NC(=O)c4ccncc4)n3)c(C)c2)cn1 [Compound 27, N-(4-{4-(5-(2-methoxyethoxy)pyrazin-2-ylthio)-2,6-dimethylphenyl}thiazol-2-yl)isonicotinamide]
IC50 [2]: > 10 µM
